Assay results reported in patent US12559505B2, “IDH mutant inhibitor and use thereof” (WIGEN BIOMEDICINE TECHNOLOGY (SHANGHAI) CO., LTD., priority 2020, dated 2026).

Biological target: T1, IDH R132C (Homo sapiens, UniProt O75874, R132C)
T1 construct: expressed in transfected cells; host or cells: U87 cells
Assay: Detection of 2-HG in supernatant of U87-IDH R132C cells
Format: cell-based
Settings: 72 h, LC-MS-MS, vs control; for inhibition at 0.001 µM: read-out: Inhibition rate of compounds on 2-HG in the supernatant of U87-IDH R132C cells, 1 nM; for inhibition at 0.01 µM: read-out: Inhibition rate of compounds on 2-HG in the supernatant of U87-IDH R132C cells, 10 nM; for inhibition at 0.1 µM: read-out: Inhibition rate of compounds on 2-HG in the supernatant of U87-IDH R132C cells, 100 nM
Protocol: U87 cells overexpressing the IDH R132C mutation were seeded in a 48-well plate at 50,000 cells/well. After the cells were incubated overnight for adhesion, the supernatant was removed. The cell culture media containing serially diluted compounds were added, and the cells were incubated for 72 h. After 72 h, the cultures were collected and diluted 10-fold with water, and acetonitrile was added to extract the metabolites. The 2-HG content in the cultures was analyzed by LC-MS-MS, and the percentage inhibition of compounds on 2-HG in the supernatant was calculated as compared with the control.

T1 sequence (O75874 whole entry R132C): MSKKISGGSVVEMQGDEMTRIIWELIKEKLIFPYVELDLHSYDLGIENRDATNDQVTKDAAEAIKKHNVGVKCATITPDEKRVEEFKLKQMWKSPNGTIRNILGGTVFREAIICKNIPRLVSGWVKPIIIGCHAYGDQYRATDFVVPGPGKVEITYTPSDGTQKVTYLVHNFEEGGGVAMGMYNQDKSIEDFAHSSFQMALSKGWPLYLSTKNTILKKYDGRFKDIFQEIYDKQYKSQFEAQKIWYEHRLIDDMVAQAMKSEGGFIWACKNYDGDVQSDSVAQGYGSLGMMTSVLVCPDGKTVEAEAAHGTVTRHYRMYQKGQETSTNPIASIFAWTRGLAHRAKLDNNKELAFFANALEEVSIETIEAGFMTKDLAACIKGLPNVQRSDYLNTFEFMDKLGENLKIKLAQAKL

`C=CC(=O)N1CC2(C1)CN(C(CC)c1ccc([C@H](C)Nc3ncc4c(n3)N(CC)C(=O)OC4)cc1)C2` (stereo partly drawn) [Compound 36] was tested, and the inhibition at 0.001 µM (1 nM compound) was 60 to 90%, the inhibition at 0.01 µM (10 nM compound) was over 90% and the inhibition at 0.1 µM (100 nM compound) was over 90%.
`C=CC(=O)N1CCN(C(CC2CC2)c2ccc(C3(Nc4ncc5cnc(=O)n(C(C)C)c5n4)CC3)cc2)CC1` (stereo not drawn) [Compound 106] gave an inhibition at 0.001 µM (1 nM compound) of 30 to 60%, an inhibition at 0.01 µM (10 nM compound) of 60 to 90% and an inhibition at 0.1 µM (100 nM compound) of over 90%.
Work on `C=CC(=O)N1CCN(C(CC(C)C)c2ccc([C@H](C)Nc3ncc4cnc(=O)n(CC)c4n3)cc2)CC1` (stereo partly drawn) [Compound 116] yielded an inhibition at 0.001 µM (1 nM compound) of 60 to 90%, an inhibition at 0.01 µM (10 nM compound) of over 90% and an inhibition at 0.1 µM (100 nM compound) of over 90%.
`C=CC(=O)NC1CCN(C(CC2CC2)c2ccc([C@H](C)Nc3ncc4c(n3)N(CC)C(=O)OC4)cc2)CC1` (stereo partly drawn) [Compound 11] showed an inhibition at 0.001 µM (1 nM compound) of 30 to 60%, an inhibition at 0.01 µM (10 nM compound) of over 90% and an inhibition at 0.1 µM (100 nM compound) of over 90%.
In the case of `C=CC(=O)N(C)C1CN(C(CC2CC2)c2ccc([C@H](C)Nc3ncc4c(n3)N(CC)C(=O)OC4)cc2)C1` (stereo partly drawn) [Compound 19], the inhibition at 0.001 µM (1 nM compound) is reported as 30 to 60%, the inhibition at 0.01 µM (10 nM compound) is reported as over 90% and the inhibition at 0.1 µM (100 nM compound) is reported as over 90%.
`C=CC(=O)N1CCN([C@@H](CC23CC(C2)C3)c2ccc([C@H](C)Nc3ncc4c(n3)N(CC)C(=O)OC4)cc2)CC1` [Compound 157-1] gave an inhibition at 0.001 µM (1 nM compound) of 60 to 90%, an inhibition at 0.01 µM (10 nM compound) of over 90% and an inhibition at 0.1 µM (100 nM compound) of over 90%.
`C=CC(=O)N1CCN(C(CC2CC2)c2ccc([C@H](C)Nc3ncc4c(n3)N(C(C)C)C(=O)OC4)cc2)CC1` (stereo partly drawn) [Compound 147] showed an inhibition at 0.001 µM (1 nM compound) of 60 to 90%, an inhibition at 0.01 µM (10 nM compound) of over 90% and an inhibition at 0.1 µM (100 nM compound) of over 90%.
Work on `C=CC(=O)NC1CN(C(CC2CC2)c2ccc(C3(Nc4ncc5c(n4)N(CC)C(=O)OC5)CC3)cc2)C1` (stereo not drawn) [Compound 28] yielded an inhibition at 0.001 µM (1 nM compound) of under 30%, an inhibition at 0.01 µM (10 nM compound) of 60 to 90% and an inhibition at 0.1 µM (100 nM compound) of over 90%.
Compound `C=CC(=O)NC1CN(C(CC2CC2)c2ccc([C@H](C)Nc3ncc4c(n3)N(C(C)C)C(=O)OC4)cc2)C1` (stereo partly drawn) [Compound 23] has an inhibition at 0.001 µM (1 nM compound) of 30 to 60%, an inhibition at 0.01 µM (10 nM compound) of 60 to 90% and an inhibition at 0.1 µM (100 nM compound) of over 90%.
For `C=CC(=O)NC1CN(C(CC2CC2)c2ccc([C@H](C)Nc3ncc4c(n3)N(CC)C(=O)OC4)cc2)C1` (stereo partly drawn) [Compound 14], the inhibition at 0.001 µM (1 nM compound) was 30 to 60%, the inhibition at 0.01 µM (10 nM compound) was over 90% and the inhibition at 0.1 µM (100 nM compound) was over 90%.
Compound `C=CC(=O)N1CC2(C1)CN(C(CC1CC1)c1ccc(C3(Nc4ncc5c(n4)N(CC)C(=O)OC5)CC3)cc1)C2` (stereo not drawn) [Compound 26] has an inhibition at 0.001 µM (1 nM compound) of 30 to 60%, an inhibition at 0.01 µM (10 nM compound) of 60 to 90% and an inhibition at 0.1 µM (100 nM compound) of over 90%.
`C=CC(=O)N1CC2(CC([C@H](CC)c3ccc(CNc4ncc5c(n4)N(CC)C(=O)OC5)cc3)C2)C1` [Compound 36-2] was tested, and the “Inhibition rate of compounds on 2-HG in the supernatant of U87-IDH R132C cells, 1 nM” value (1 nM compound) was “B (B represents an inhibition rate greater than 60% but less than or equal to 90%)”, the “Inhibition rate of compounds on 2-HG in the supernatant of U87-IDH R132C cells, 10 nM” value (10 nM compound) was “B (B represents an inhibition rate greater than 60% but less than or equal to 90%)” and the “Inhibition rate of compounds on 2-HG in the supernatant of U87-IDH R132C cells, 100 nM” value (100 nM compound) was “A (A represents an inhibition rate greater than 90%)”.
`C=CC(=O)N1CCN(C(CC2(C)CC2)c2ccc([C@H](C)Nc3ncc4c(n3)N(CC)C(=O)NC4)cc2)CC1` (stereo partly drawn) [Compound 69] gave an inhibition at 0.001 µM (1 nM compound) of 30 to 60%, an inhibition at 0.01 µM (10 nM compound) of over 90% and an inhibition at 0.1 µM (100 nM compound) of over 90%.
`C=CC(=O)N1CCN([C@H](CC2CC2)c2ccc([C@H](C)Nc3ncc4cnc(=O)n(C(C)C)c4n3)cc2)CC1` [Compound 85-2] showed an inhibition at 0.001 µM (1 nM compound) of 30 to 60%, an inhibition at 0.01 µM (10 nM compound) of 60 to 90% and an inhibition at 0.1 µM (100 nM compound) of over 90%.
In the case of `C=CC(=O)N1CC2(C1)CN([C@@H](CC)c1ccc([C@H](C)Nc3ncc4c(n3)N(CC)C(=O)OC4)cc1)C2` [Compound 36-1], the inhibition at 0.001 µM (1 nM compound) is reported as 60 to 90%, the inhibition at 0.01 µM (10 nM compound) is reported as over 90% and the inhibition at 0.1 µM (100 nM compound) is reported as over 90%.
For `C=CC(=O)N1CCN(C(CC(C)C)c2ccc([C@H](C)Nc3ncc4c(n3)N(C(C)C)C(=O)NC4)cc2)CC1` (stereo partly drawn) [Compound 81], the inhibition at 0.001 µM (1 nM compound) was 30 to 60%, the inhibition at 0.01 µM (10 nM compound) was 60 to 90% and the inhibition at 0.1 µM (100 nM compound) was over 90%.
Work on `C=CC(=O)N1CCN(C(CC2CCC2)c2ccc([C@H](C)Nc3ncc4c(n3)N(C(C)C)C(=O)OC4)cc2)CC1` (stereo partly drawn) [Compound 143] yielded an inhibition at 0.001 µM (1 nM compound) of 30 to 60%, an inhibition at 0.01 µM (10 nM compound) of 60 to 90% and an inhibition at 0.1 µM (100 nM compound) of over 90%.
With `C=CC(=O)N(C)C1CN(C(CC2CC2)c2ccc(C3(Nc4ncc5c(n4)N(CC)C(=O)OC5)CC3)cc2)C1` (stereo not drawn) [Compound 30] the inhibition at 0.001 µM (1 nM compound) was 30 to 60%, the inhibition at 0.01 µM (10 nM compound) was 60 to 90% and the inhibition at 0.1 µM (100 nM compound) was over 90%.
Work on `C=CC(=O)N1CCN([C@H](CC)c2ccc([C@H](C)Nc3ncc4cnc(=O)n(CC)c4n3)cc2)CC1` [Compound 116-2] yielded an inhibition at 0.001 µM (1 nM compound) of 30 to 60%, an inhibition at 0.01 µM (10 nM compound) of 60 to 90% and an inhibition at 0.1 µM (100 nM compound) of over 90%.
Work on `C=CC(=O)N(C)C1CCN(C(CC2CC2)c2ccc([C@H](C)Nc3ncc4c(n3)N(CC)C(=O)OC4)cc2)CC1` (stereo partly drawn) [Compound 16] yielded an inhibition at 0.001 µM (1 nM compound) of 30 to 60%, an inhibition at 0.01 µM (10 nM compound) of 60 to 90% and an inhibition at 0.1 µM (100 nM compound) of over 90%.
With `C=CC(=O)N1CCN(C(CC2CC2)c2ccc([C@H](C)Nc3ncc4c(n3)N(CC)C(=O)NC4)cc2)CC1` (stereo partly drawn) [Compound 82] the inhibition at 0.001 µM (1 nM compound) was 30 to 60%, the inhibition at 0.01 µM (10 nM compound) was 60 to 90% and the inhibition at 0.1 µM (100 nM compound) was over 90%.
In the case of `C=CC(=O)N1CC2(C1)CN(C(CC13CC(C1)C3)c1ccc([C@H](C)Nc3ncc4c(n3)N(CC)C(=O)NC4)cc1)C2` (stereo partly drawn) [Compound 72], the inhibition at 0.001 µM (1 nM compound) is reported as 60 to 90%, the inhibition at 0.01 µM (10 nM compound) is reported as over 90% and the inhibition at 0.1 µM (100 nM compound) is reported as over 90%.
`C=CC(=O)N1CCN(C(CC(C)(C)C)c2ccc([C@H](C)Nc3ncc4c(n3)N(C(C)C)C(=O)OC4)cc2)CC1` (stereo partly drawn) [Compound 146] gave an inhibition at 0.001 µM (1 nM compound) of 30 to 60%, an inhibition at 0.01 µM (10 nM compound) of 60 to 90% and an inhibition at 0.1 µM (100 nM compound) of over 90%.
`C=CC(=O)N1CCN(C(CC(C)C)c2ccc([C@H](C)Nc3ncc4cnc(=O)n(C(C)C)c4n3)cc2)CC1` (stereo partly drawn) [Compound 113] showed an inhibition at 0.001 µM (1 nM compound) of 60 to 90%, an inhibition at 0.01 µM (10 nM compound) of over 90% and an inhibition at 0.1 µM (100 nM compound) of over 90%.
`C=CC(=O)N1CCN([C@@H](CC)c2ccc([C@H](C)Nc3ncc4cnc(=O)n(CC)c4n3)cc2)CC1` [Compound 116-1] gave an inhibition at 0.001 µM (1 nM compound) of 60 to 90%, an inhibition at 0.01 µM (10 nM compound) of over 90% and an inhibition at 0.1 µM (100 nM compound) of over 90%.
Work on `C=CC(=O)N1CCN(C(CC)c2ccc([C@H](C)Nc3ncc4cnc(=O)n(CC)c4n3)cc2)CC1` (stereo partly drawn) [Compound 115] yielded an inhibition at 0.001 µM (1 nM compound) of 30 to 60%, an inhibition at 0.01 µM (10 nM compound) of over 90% and an inhibition at 0.1 µM (100 nM compound) of over 90%.
`C=CC(=O)N(C)C1CCN(C(CC2CC2)c2ccc([C@H](C)Nc3ncc4c(n3)N(C(C)C)C(=O)OC4)cc2)CC1` (stereo partly drawn) [Compound 24] gave an inhibition at 0.001 µM (1 nM compound) of 30 to 60%, an inhibition at 0.01 µM (10 nM compound) of over 90% and an inhibition at 0.1 µM (100 nM compound) of over 90%.
Compound `C=CC(=O)N1CC2(C1)CN(C(CC1(C)CC1)c1ccc([C@H](C)Nc3ncc4c(n3)N(CC)C(=O)OC4)cc1)C2` (stereo partly drawn) [Compound 65] has an inhibition at 0.001 µM (1 nM compound) of 30 to 60%, an inhibition at 0.01 µM (10 nM compound) of over 90% and an inhibition at 0.1 µM (100 nM compound) of over 90%.
`C=CC(=O)N(C)C1CCN(C(CC2CC2)c2ccc(C3(Nc4ncc5c(n4)N(CC)C(=O)OC5)CC3)cc2)CC1` (stereo not drawn) [Compound 29] showed an inhibition at 0.001 µM (1 nM compound) of under 30%, an inhibition at 0.01 µM (10 nM compound) of 60 to 90% and an inhibition at 0.1 µM (100 nM compound) of over 90%.
Compound `C=CC(=O)N1CC2(C1)CN(C(CC(C)(C)C)c1ccc([C@H](C)Nc3ncc4c(n3)N(CC)C(=O)OC4)cc1)C2` (stereo partly drawn) [Compound 59] has an inhibition at 0.001 µM (1 nM compound) of 30 to 60%, an inhibition at 0.01 µM (10 nM compound) of 60 to 90% and an inhibition at 0.1 µM (100 nM compound) of over 90%.
With `C=CC(=O)N1CC2(C1)CN([C@H](CC13CC(C1)C3)c1ccc([C@H](C)Nc3ncc4c(n3)N(CC)C(=O)NC4)cc1)C2` [Compound 72-2] the inhibition at 0.001 µM (1 nM compound) was 30 to 60%, the inhibition at 0.01 µM (10 nM compound) was 60 to 90% and the inhibition at 0.1 µM (100 nM compound) was over 90%.
